Measured values from patent publication US20060148735A1, “Methods for treating, preventing, or reducing cardiac disorders using fadd inhibitors” (priority 2002, published 2006).
“Also recorded” adds a separate entry of the source. Where a SMILES comes first, the peptide text is derived from it. The star is where a group is joined. Cbz = O=C(OCc1ccccc1)*; CH2F = FC*

How the values were obtained:
[1] = system: rat neonatal cardiomyocytes; experiment: Hypoxia/serum-deprivation-induced cardiomyocyte apoptosis (cell death ELISA, DNA laddering); assay type: cell-based
Protocol: (§1) Cardiomyocytes (CM) were prepared from 1-2 day-old rats as described by Matsui et al. (Circulation 100:2373-9, 1999). All CM were incubated in RPMI-1640 containing 5% FBS and 10% horse serum. Neonatal CM grown in 60 mm dishes were infected with Ad.EGFP.β-gal (MOI 20), Ad.FADD-wt, or Ad.FADD-dn (MOI 20), for 24 hours prior to exposure to transient hypoxic conditions, lasting up to 24 hours. To expose CM to transient hypoxia conditions, CM media is changed to N2/CO2-saturated serum-free F10 and cells are placed in an airtight N2-saturated container at 37° C. for up to 24 hours. Hypoxia was confirmed by oxymetry measurements. To examine the role of FADD in inflammatory signaling, cultured neonatal rat CM were stimulated with TNF-α (50 ng/ml) for 4 hours. Nuclear and cytoplasmic extracts were prepared.
For determination of DNA laddering, cellular DNA is extracted with phenol:chloroform, treated with RNase, ^32P-labeled, and then visualized by electrophoresis in 1.8% agarose gel.
Histone-associated DNA fragments were quantified by cell death ELISA as described in the manufacturer's protocol. DNA fragmentation data were corrected for background and normalized to the result with normoxic cardiomyocytes.

caspase-8 = experiment: Caspase-8 activity (colorimetric assay) in cardiomyocytes; assay type: cell-based, rat; conditions: listed as zIETD-fink
Protocol: as §1
(§2) Optionally, apoptosis may also be measured by the protein or gene expression, or alternatively, by the activity of surrogate markers of apoptosis including, for example, caspase activity. Caspase-3, -8, and -9 activity may be examined by using the caspase colorimetric assay kit from R&D Systems according to the manufacturer's protocol. Briefly, cells are scraped, collected, washed with cold PBS, and lysed in cold lysis buffer. […] Release of the pNA cleavage product is quantitated in a microplate reader (Bio-Rad) at a wavelength of 405 nm.

caspase-9 = experiment: Caspase-9 activity (colorimetric assay) in cardiomyocytes; assay type: cell-based, rat; conditions: pretreatment or over-expression
Protocol: as §1, §2

NF-κB = experiment: TNF-α-induced NF-κB activation in neonatal rat cardiomyocytes (p65 translocation, IκB-α phosphorylation, EMSA); assay type: cell-based; conditions: 50 μM
Protocol: as §1, with “prepared. […]” for “prepared.”
Cells were harvested and nuclear extracts prepared as above. […] Nuclear proteins and oligonucleotide were then separated with native PAGE and detected by autoradiography.
Proteins were separated by SDS-PAGE performed under reducing conditions on 7.5%, 10%, and 12% separation gels with a 4% stacking gel. […] After washing, membranes were incubated with horseradish peroxidase-conjugated secondary antibody and immunoreactive bands detected by chemiluminescence.

## CC[C@H](C)[C@H](NC(=O)OCc1ccccc1)C(=O)N[C@@H](CCC(=O)OC)C(=O)N[C@H](C(=O)N[C@@H](CC(=O)OC)C(=O)CF)[C@@H](C)O [zIETD-fmk] (Cbz-IE(OMe)TD(OMe)-CH2F)
[1]; 4 h hypoxia/SD
  CM apoptosis in response to hypoxia/SD: completely inhibited
caspase-8
  hypoxia/SD-induced caspase-8 activation: completely inhibited; also recorded: effectively blocked
caspase-9
  hypoxia/SD-induced activation of caspase-9: completely inhibited
NF-κB
  reversal of the FADD effect on NF-κB: failed to reverse

## COC(=O)C[C@H](NC(=O)[C@H](C)NC(=O)[C@@H](NC(=O)OCc1ccccc1)C(C)C)C(=O)CF [zVAD-fmk] (Cbz-Val-Ala-Asp(OMe)-CH2F)
[1]; concentrations ranging from 50 to 100 μM
  hypoxia/SD-induced apoptosis (ELISA for histone-associated DNA fragmentation, DNA laddering): inhibited
